Assay results as given in PMC5607274, “An iterative compound screening contest method for identifying target protein inhibitors using the tyrosine-protein kinase Yes” (Scientific Reports, 2017).

Target: T1, human recombinant Yes [a.a. 2–543 (end)] (Homo sapiens, UniProt P07947)
T1 construct: human recombinant Yes [a.a; 2–543 (end)]; purchased BPS Bioscience 40488
Assay: ADP-Glo kinase assay, inhibition rates of Yes phosphorylation activity (first and second screening)
Assay type: biochemical
Settings: 10 μmol L−1 compound; for First screening IR (inhibition rate): mean of n = 4 wells
How it was run: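 ADP-Glo luminescence measured inhibition of human recombinant Yes (a.a. 2–543) phosphorylation activity. In the first screen, each compound ran in 4 wells and inhibition rates were averaged. The second screen retested hits as compounds dissolved from fresh powder.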

T1 sequence (P07947 2-543): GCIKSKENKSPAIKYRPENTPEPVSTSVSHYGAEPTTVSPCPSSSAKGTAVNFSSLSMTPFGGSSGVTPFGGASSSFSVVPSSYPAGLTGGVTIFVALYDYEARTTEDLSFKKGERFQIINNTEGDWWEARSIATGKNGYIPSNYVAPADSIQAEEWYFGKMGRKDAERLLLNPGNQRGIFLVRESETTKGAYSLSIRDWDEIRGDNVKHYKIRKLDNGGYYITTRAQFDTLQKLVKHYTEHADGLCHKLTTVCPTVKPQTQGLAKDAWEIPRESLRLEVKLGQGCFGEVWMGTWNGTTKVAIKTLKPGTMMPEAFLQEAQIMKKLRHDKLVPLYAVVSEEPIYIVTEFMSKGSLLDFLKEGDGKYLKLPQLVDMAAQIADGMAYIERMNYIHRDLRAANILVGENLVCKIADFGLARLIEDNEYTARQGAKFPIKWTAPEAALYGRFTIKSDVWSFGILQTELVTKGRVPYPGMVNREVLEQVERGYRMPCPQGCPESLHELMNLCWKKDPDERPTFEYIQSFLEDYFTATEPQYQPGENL

SMILES | First screening IR (inhibition rate) | Second screening IR (inhibition rate) (second screening, dissolved from fresh powder, n = 4)
COc1cccc2cc(C(=O)N3CCN(S(=O)(=O)c4ccccc4C(F)(F)F)CC3)c(=O)oc12 [Compound Z29531247] | 18% | 
CC1(C)CN=C(N2CCN(C(=O)c3ccc(C(N)=O)cc3)CC2)S1 [Compound Z1250701189] | 3% | 
O=C1OCCN1Cc1ccc(Nc2nccc(C(F)(F)F)n2)cc1 [Compound Z646432252] | 11% | 
CCN(c1cccnc1)S(=O)(=O)c1cc(S(C)(=O)=O)ccc1Cl [Compound Z1082836308] | -7% | 
C=CCn1c(-c2ccc(Cl)cc2)nn(CN2CCN(C(=O)c3ccccc3F)CC2)c1=S [Compound Z358275910] | 5% | 
O=C(Nc1cccc(C#Cc2cccs2)c1)C1CC2CCCC(C1)C2=O (stereo not drawn) [Compound Z271080962] | -2% | 
Cn1ncc2c(N3CCNCC3)ncnc21 [Compound Z223639244] | -11% | 
CC(=O)N1CCN(c2nc(C(F)(F)F)nc3ccsc23)CC1 [Compound Z370715150] | 6% | 
CCOc1ccc(O)c(/C=C2\C(=O)Nc3ccc(Cl)cc32)c1 [Compound Z44304769] | 23% | 
COc1ccc(Cl)cc1CN(C)C(=O)c1cc(C(C)C)nc2c1cnn2C(C)C [Compound Z110143980] | -14% | 
CC(C)NC(=O)N1CCCCCC1C1CCN(c2ncc(C(N)=O)cc2Cl)CC1 (stereo not drawn) [Compound Z1168219830] | 13% | 
CN(c1ccc(NC(=O)N2CCN(C(=O)c3cccnc3)CC2)cc1F)C1CCCCC1 [Compound Z595406192] | 2% | 
CC(C)c1ccc(-n2cc(O)c(C(=O)NCC(C)N3CCCCC3=O)n2)cc1 (stereo not drawn) [Compound Z1820642882] | -3% | 
CC(=O)Nc1ccc(/C=C2/CC(C(C)(C)C)Cc3c2nc2ccccc2c3C(=O)O)cc1 (stereo not drawn) [Compound Z46108738] | 26% | 
CC(NC(c1ccccc1)c1ccccn1)c1ccncc1 (stereo not drawn) [Compound Z335491150] | 3% | 
O=S(=O)(c1ccc(Br)cc1Cl)N1CCN(Cc2cn3ccccc3n2)CC1 [Compound Z89065969] | -1% | 
Cc1ccc(-c2nc(N)sc2C)s1 [Compound Z381381388] | -1% | 
CCC(C)(C)C1C/C(=C/c2ccccc2Br)c2nc3ccccc3c(C(=O)O)c2C1 (stereo not drawn) [Compound Z46116650] | 23% | 
COc1ccc(Nc2nc(NCCN3CCOCC3)nc(Nc3ccc(OC)cc3)n2)cc1 [Compound Z57049315] | 6% | 
Cc1ccc(C)c(CN2CCN(c3nc4c(c(=O)[nH]c(=O)n4C)n3Cc3ccc(Cl)cc3)CC2)c1 [Compound Z237733696] | 8% | 
CS(=O)(=O)c1ccc(Cl)c(S(N)(=O)=O)c1 [Compound Z353972988] | 2% | 
CN(C(=O)c1ccc(NC(=O)C2CCCO2)cc1Cl)C1CCCCC1 (stereo not drawn) [Compound Z738379554] | 3% | 
CS(=O)(=O)c1ccc(F)c(S(C)(=O)=O)c1 [Compound Z652718652] | 31% | 

SMILES | First screening IR (inhibition rate) | Second screening IR (inhibition rate) (second screening, dissolved from fresh powder, n = 4)
CC(O)C1CCN(C(=O)NCC2CC(C)N(Cc3ccccc3)C2)C1 (stereo not drawn) [Compound Z1658298345] | -9% | 
COc1ccccc1Nc1ncnc(N)n1 [Compound Z56799636] | -3% | 
CCN(CC)CCC1S(=O)(=O)CC(c2ccccc2)CS1(=O)=O (stereo not drawn) [Compound Z56768715] | 8% | 
CC(c1cc2ccccc2o1)N(C)c1ncnc2c1cnn2C (stereo not drawn) [Compound Z328694162] | -5% | 
CCN(c1ccccc1)S(=O)(=O)c1ccc(C(=O)Nc2ccc(S(=O)(=O)N(C)C)cc2)cc1 [Compound Z29267150] | 2% | 
C/C(=C/c1ccc2ncccc2c1)c1cnccn1 [Compound Z1728623559] | 2% | 
Cc1cc(C)c(NC(=O)CNC(=O)COc2ccccc2C(=O)N2CCCCC2)c(C)c1 [Compound Z25138787] | -1% | 
CC(Sc1nc2nn(-c3ccccc3)c(=O)c-2c2n1CCCCC2)C(=O)NC(=O)NC1CCCCC1 (stereo not drawn) [Compound Z18614891] | 7% | 
N#CCOc1ccc(Nc2nccc(C(F)(F)F)n2)cc1 [Compound Z318833320] | 7% | 
CS(=O)(=O)c1cccc(S(N)(=O)=O)c1 [Compound Z299680982] | 5% | 
COCCNc1ncnc2c1c(-c1ccccc1)cn2-c1ccc(OC)cc1 [Compound Z57455912] | 16% | 
CC1(C(=O)N2CCCc3cc(S(=O)(=O)N4CCCC4)ccc32)Cc2ccccc2C(=O)O1 (stereo not drawn) [Compound Z131206652] | -1% | 
CCCN(CCC)S(=O)(=O)c1cccc(S(N)(=O)=O)c1 [Compound Z237751694] | -9% | 
CC1CCC(NS(=O)(=O)c2ccc(N3CCCC(c4nnc5ccccn45)C3)c([N+](=O)[O-])c2)CC1 (stereo not drawn) [Compound Z166704886] | 5% | 
COc1ccc(-n2cc(-c3ccccc3)c3c(NCCOCCO)ncnc32)cc1 [Compound Z57456127] | -8% | 
CCCN(C1CCS(=O)(=O)C1)S(=O)(=O)c1ccccc1Cl (stereo not drawn) [Compound Z45480819] | -1% | 
O=C(/C=C/c1ccc(Br)o1)Nc1ccc(S(=O)(=O)C2CCCC2)cc1 [Compound Z364474850] | 0% | 
CCc1ccc(S(=O)(=O)N(CC)C2CCS(=O)(=O)C2)cc1 (stereo not drawn) [Compound Z65566827] | 2% | 
CS(=O)(=O)c1ccc(N2CCCCCC2)c(S(C)(=O)=O)c1 [Compound Z199538216] | 51% | -10%
Cc1ccccc1-n1c(SCC(=O)Nc2ccc(N3CCOCC3)cc2)nnc1-c1ccncc1 [Compound Z19446050] | -3% | 
O=C(Nc1cccc(OCCn2cccn2)c1)NC1CCSCC1 [Compound Z987964770] | 8% | 
O=C(c1ccc(Nc2nccc(C(F)(F)F)n2)cc1)N1CCCC1 [Compound Z319025642] | -36% | 
C=CCN1C(=O)c2ccc(C(=O)OCc3cn4ccccc4n3)cc2C1=O [Compound Z16715300] | 29% | 

Continued, values first:

First screening IR (inhibition rate) | Second screening IR (inhibition rate) (second screening, dissolved from fresh powder, n = 4) | SMILES
55% |  | Cc1nccn1Cc1ccc(NC(=O)c2ncccc2O)cc1 [Compound Z1746485864]
3% |  | Cc1ccc(C(=O)Nc2cc(C(=O)N3CCCCC3)ccc2Cl)o1 [Compound Z1037939812]
8% |  | CC(C)(CNC(=O)c1cccc(N2CC(O)=C(c3nc4ccccc4s3)C2=N)c1)N1CCOCC1 [Compound Z32220177]
-3% |  | Cc1cc(NC(=O)C(C)SCC(=O)Nc2cccc3ncccc23)no1 (stereo not drawn) [Compound Z29903633]
-7% |  | Cc1nc(-c2ccc(CNC(=O)Cc3cccc(F)c3)o2)cs1 [Compound Z164951688]
-13% |  | C[S+]([O-])CCNC(=O)c1ccc(-c2cc(Cl)cc(Cl)c2)s1 (stereo not drawn) [Compound Z1220303895]
30% |  | COc1ccc(/C=C2/CC(C)Cc3c2nc2ccccc2c3C(=O)OCC(N)=O)cc1 (stereo not drawn) [Compound Z15674725]
11% |  | COCc1nnc(-c2cccc(-c3nc(-c4cccs4)no3)c2)o1 [Compound Z1601587562]
-4% |  | CCN(C(=O)CN(C)CC(=O)Nc1c(C)cc(C)cc1C)c1cccc2ccccc12 [Compound Z46455760]
45% |  | Cc1ccc2c(=O)c(C(=O)N(C)CC(=O)Nc3ccc(Cl)c(Cl)c3)c[nH]c2n1 [Compound Z454409356]
-9% |  | CN1C/C(=C/c2ccc3c(c2)OCO3)c2nc3ccccc3c(C(=O)O)c2C1 [Compound Z46114673]
9% |  | CC(C)(C)C(=O)NCc1ccc(C(=O)COC(=O)c2cc3c(s2)CCC3)s1 [Compound Z73973253]
20% |  | CCn1ncc2c(C(=O)OC)cc(-c3cccs3)nc21 [Compound Z90171904]
10% |  | Cc1nnc(SCC(=O)c2cc3cc(Cl)ccc3o2)n1C1CC1 [Compound Z98941608]
-2% |  | CCc1ccccc1Nc1nc(N)nc(CSCC(=O)c2cc(C)n(C)c2C)n1 [Compound Z45360560]
-5% |  | CCn1ncc2c(C(=O)N(C)Cc3ccc(SC)cc3)cc(-c3ccccc3)nc21 [Compound Z224588706]
-11% |  | Cc1nn(CCC#N)c2nc(-c3ccccc3)cc(C(F)(F)F)c12 [Compound Z55426833]
-4% |  | Cc1cccc(-c2nc(NC(=O)C3Cc4cc(F)ccc4O3)n[nH]2)n1 (stereo not drawn) [Compound Z1279679753]
0% |  | O=C(NCCCOc1ccccc1F)c1ccc2nc[nH]c2c1 [Compound Z147064724]
15% |  | O=C(CSc1nnc(-c2ccco2)o1)Nc1ccc2c(c1)CCC2 [Compound Z18650720]
0% |  | Cn1nnnc1SCC(=O)c1c(-c2ccccc2)[nH]c2ccccc12 [Compound Z18519048]
27% |  | Cc1nn(C)c2nc(C3CC3)cc(C(=O)Nc3ccccc3O)c12 [Compound Z235446856]
-6% |  | OCCNc1ncnc2c1c(-c1ccccc1)cn2-c1ccc(F)cc1 [Compound Z57455953]
20% |  | O=C(Nc1nc(-c2ccccc2)cs1)c1cc2ccccc2s1 [Compound Z87524039]
20% |  | CCOc1ccc(N2C(C)=CC(=C(C#N)c3nc4ccccc4s3)C=C2C)cc1 [Compound Z223690154]
